Values quoted from earlier work in patent US20240423911A1, “EMULSION COMPOSITION” (AstaReal Co., Ltd., priority 2018, published 2024).

Columns and labels:
[1] = Takahashi et al. 2004

## CC1=C(/C=C/C(C)=C/C=C/C(C)=C/C=C/C=C(C)/C=C/C=C(C)/C=C/C2=C(C)C(=O)C(O)CC2(C)C)C(C)(C)CC(O)C1=O (stereo not drawn) [Astaxanthin, 3,3′-dihydroxy-β,β-carotene-4,4′-dione]
[1]
  mutagenicity: no mutagenicity has been observed
Higher than that of vitamin E
  antioxidative activity relative to vitamin E: approximately 1000 times
Higher than that of β-carotene
  antioxidative activity relative to β-carotene: ~40 times
